Publication PMC2685009, “Identification and Characterization of Inhibitors of Human Apurinic/apyrimidinic Endonuclease APE1” (PLoS ONE, 2009)
Like-named read-outs stand apart in the source and are kept apart here.

Assays:
APE1 [1] = molecular target: T1, APE1 (Homo sapiens, UniProt P27695); experiment: qHTS fluorogenic AP site incision assay (TAMRA/BHQ-2 red substrate, 1536-well); format: biochemical
T1 construct: made in house
Experimental: Recombinant human APE1 and E. coli EndoIV were purified as previously described. Deoxyoligonucleotides containing a tetrahydrofuran (THF) AP site analog, carboxytetramethyl rhodamine (TAMRA), or Black Hole Quencher-2 (BHQ-2), as appropriate (see Figure 1), were purchased from Biosearch Technologies, Inc., (Novato, CA). To create double-stranded DNA substrates, equal volumes of 200 µM solutions of the respective strands in reaction buffer were mixed and incubated at 95°C for 5 min. The annealing mixture was allowed to cool gradually to room temperature. Annealing and assay experiments were performed in the following buffer: 50 mM Tris pH 7.5, 25 mM NaCl, 2 mM MgCl2, 1 mM DTT, 0.01% Tween-20.
Initial optimizations were carried out in 384-well format at a 40 µL total reaction volume. Briefly, 30 µL of APE1 were pipetted into the plate and incubated at room temperature for 10 min; subsequently, 10 µL of substrate were added to start the reaction. The final assay concentrations of the enzyme and substrate were 0.75 nM and 50 nM, respectively. Kinetic fluorescence data were collected on a ViewLux high-throughput CCD imager (Perkin Elmer, Waltham, MA) equipped with standard FITC (excitation filter 480 nm and emission filter 530 nm) or BODIPY (excitation filter 525 nm and emission filter 598 nm) optics.
Three µl of reagents (buffer in columns 3 and 4 as negative control and APE1 in columns 1, 2, 5–48) were dispensed into a 1536-well plate. Compounds (DMSO solutions) and control (DMSO only) (23 nL) were transferred via Kalypsys pintool equipped with 1536-pin array. The plate was incubated for 15 min at room temperature, and then 1 µL of substrate (50 nM final concentration) was added to start the reaction. Library plates were screened from the lowest to highest concentration.
Screening data were corrected and normalized, and concentration–effect relationships were derived by using in-house developed, publicly available algorithms (http://www.ncgc.nih.gov/pub/openhts/curvefit/). Percent activity was computed after normalization against the uninhibited, or neutral, control (64 wells, entire columns 1 and 2) and the no-enzyme, or 100% inhibited, control (64 wells, entire columns 3 and 4), respectively. A four parameter Hill equation was fitted to the concentration-response data by minimizing the residual error between the modeled and observed responses.

APE1 [2] = molecular target: T1, APE1; experiment: Radiotracer (32P, gel-based) incision assay; format: biochemical; conditions: for Gel: inhibition detected or not in radiotracer incision assay: APE1, 32P-labeled THF substrate
[3] = molecular target: unlabeled double-stranded DNA substrate; experiment: ThO dye-displacement assay (DNA binding); conditions: for IC50: 50 nM DNA, 250 nM ThO; for ThO displacement (in words): LOPAC dose-response profiling
E. coli EndoIV = molecular target: T2, E. coli EndoIV (Escherichia coli, UniProt P0A6C1); experiment: E. coli Endonuclease IV (EndoIV) profiling assay; format: biochemical
T2 construct: made in house
Experimental: EndoIV enzyme and substrate (same as that used with APE1) optimization tests were initially performed at a 40 µL final volume in a 384-well format. Reaction concentrations of 2 nM EndoIV and 50 nM DNA substrate were selected for subsequent experiments. For running the assay in 1536-well format, the same protocol as described for APE1 above was followed.

[4] = test system: AP site cleavage activity of HEK 293T whole cell extract; experiment: Whole cell extract AP endonuclease activity assay (HEK 293T); format: biochemical, human; conditions: inhibitor at 100 µM
Experimental: (§1) The radiotracer assay was performed essentially as described. In brief, prioritized candidate inhibitor compounds from the qHTS assay were incubated at various concentrations (100 µM data shown) with APE1 (100 pg) at room temperature for 15 min in 25 mM Tris pH 7.5, 25 mM NaCl, 1 mM MgCl2, 1 mM DTT and 0.01% Tween-20. At that time, 0.5 pmol ^32P-radiolabeled THF-containing 34 mer double-stranded DNA substrate was added. Incision reactions were then carried out immediately at 37°C for 10 min in a final volume of 10 µL. After the addition of an equal volume of stop buffer (0.05% bromophenol blue and xylene cynol, 20 mM EDTA, 95% formamide), the radiolabeled substrate and product were separated on a standard polyacrylamide denaturing gel and quantified by phosphorimager analysis.
(§2) HEK 293T or HeLa cells – maintained in DMEM with 10% fetal bovine serum and 1% Penicillin-Streptomycin – were harvested, washed with 1× PBS, re-suspended in cold 222 mM KCl, incubated on ice for 30 min, and clarified by centrifugation at 12,000×g for 15 min at 4°C [23]. The supernatant (whole cell extract) was retained, the protein concentration determined using the Bio-Rad Bradford reagent, and aliquots were stored at −80°C. AP endonuclease activity assays were performed with or without candidate inhibitor compounds as described above, except 60 ng HEK 293T or 80 ng of HeLa whole cell extract was used.

[5] = test system: AP site cleavage activity of HeLa whole cell extract; experiment: Whole cell extract AP endonuclease activity assay (HeLa); format: biochemical, human; conditions: inhibitor at 100 µM
Experimental: as §1, §2

[6] = design: method as in PMID 18042731; conditions: cited from earlier work
HeLa cells [7] = experiment: Cell-based colony survival assay with MMS; design: species or system human; conditions: HeLa colony formation, 0.25 mM MMS, 1 or 5 µM inhibitor
Experimental: To measure colony survival, HeLa cells were plated in 6-well plates 12–20 hr prior to treatment. Cells were treated as follows: (i) exposed only to control medium, (ii) exposed to 0.25 mM MMS alone for 1 hr, (iii) exposed to 1 or 5 µM of the indicated inhibitor compound alone for 4 hr, or (iii) exposed to inhibitor compound alone for 3 hr and then with MMS for an additional 1 hr at 37°C. Following treatment, cells were washed once with 1× PBS and incubated in regular maintenance media (DMEM, 10% FBS) at 37°C for 10–15 days. Colonies formed were fixed in methanol, stained in methylene blue (Sigma), and counted to determine percent survival relative to the untreated controls.

HeLa cells [8] = experiment: AP site measurement in chromosomal DNA; format: cell-based, human; conditions: for AP site damage, inhibitor alone: 5 µM inhibitor alone, relative to control cells; for AP site damage, inhibitor plus MMS: 5 µM inhibitor plus MMS
Experimental: HeLa cells were treated as above, except only at 5 µM inhibitor where indicated. Following exposure, chromosomal DNA was isolated and steady-state AP site levels were measured using the DNA Damage Quantification Kit from Dojindo Molecular Technologies, Inc. (Gaithersburg, MD) as previously described.

[9] = 50 nM substrate, 0.75 nM APE1, read-out: qHTS IC50 (primary screen, APE1)
[10] = range of inhibitor concentrations, data not shown, read-out: approximate IC50 in radiotracer assay
[11] = 2 nM EndoIV, 50 nM substrate, read-out: Endo IV IC50 (E. coli EndoIV profiling)

T1 sequence (P27695 whole entry): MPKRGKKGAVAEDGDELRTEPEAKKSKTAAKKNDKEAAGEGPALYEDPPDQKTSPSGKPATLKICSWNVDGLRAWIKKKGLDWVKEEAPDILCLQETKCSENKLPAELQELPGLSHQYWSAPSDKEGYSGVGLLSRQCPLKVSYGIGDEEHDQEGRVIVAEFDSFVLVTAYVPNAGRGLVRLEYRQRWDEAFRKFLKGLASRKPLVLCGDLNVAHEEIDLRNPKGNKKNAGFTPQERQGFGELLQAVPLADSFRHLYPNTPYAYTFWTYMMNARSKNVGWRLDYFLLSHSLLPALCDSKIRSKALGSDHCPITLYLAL

| SMILES | IC50 (APE1 [1]; [9]) [nM] | Gel: inhibition detected or not in radiotracer incision assay (APE1 [2]) | IC50 (APE1 [2]; [10]) [nM] | IC50 [3] [µM] | ThO displacement (in words) [3] | activity against EndoIV compared with APE1 (in words) (E. coli EndoIV) | IC50 (E. coli EndoIV; [11]) [µM] | inhibition of total AP site cleavage activity [4] | inhibition of total AP site cleavage activity [5] | other results |
| --- | --- | --- | --- | --- | --- | --- | --- | --- | --- | --- |
| C=C/C(C)=C/[C@@]1(C)SC(=O)C(C)=C1O [thiolactomycin] | 1000 | Yes | 500 to 2000 | > 57 | weak or no displacement activity | completely inactive or weakly active | 20 | no effect | no effect | ThO displacement (in words) ([3]; listed as Thiolactomycin): does not affect ThO displacement |
| N#C/C(=C\c1ccc(O)c(O)c1)C(=O)c1ccc(O)c(O)c1 [Tyrphostin AG 538] | 280 | Yes | 500 to 2000 | 20 | weak or no displacement activity | similarly potent against each endonuclease | 0.28 | mild inhibition | mild inhibition |  |
| CN(N=O)c1ccc(O)c(O)c1 [methyl 3,4-dephostatin, methyl-3,4-dephostatin] | 500 | Yes | 500 to 2000 | 14 |  | completely inactive or weakly active | 8.9 | no effect | no effect |  |
| O=C(O)c1cc[c]([Sb](=[O])([OH])[OH])cc1[N+](=O)[O-] [NSC-13755] |  |  |  |  |  |  |  | complete inhibition | complete inhibition | outcome in cell-based experiments [6]: fail in cell-based experiments |
| CC(=O)OCC1=C(C(=O)O)N2C(=O)[C@@H](NC(=O)CSc3ccncc3)[C@H]2SC1 [cephapirin sodium] | 8900 | No | > 50000 | > 57 |  | similarly potent against each endonuclease | 16 |  |  |  |
| O=C(O)C1=CC(=C(c2ccc(O)c(C(=O)O)c2)c2ccc(O)c(C(=O)O)c2)C=CC1=O [aurintricarboxylic acid] | 55 | Yes |  | 1.3 |  | completely inactive or weakly active | 25 |  |  | APE1 inhibition in fluorogenic assay (in words) (APE1 [1]): low nanomolar range |
| NC(Cc1cc(O)c(O)cc1O)C(=O)O (racemic) [6-hydroxy-DL DOPA, 6-hydroxy-DL-DOPA] |  | Yes |  | 7.9 |  | completely inactive or weakly active |  | complete inhibition | complete inhibition | IC50 (APE1 [1]): 110 nM; IC50 (APE1 [2]): < 500 nM; IC50 (E. coli EndoIV): 10 µM; percent cell killing, MMS plus inhibitor relative to alkylator or inhibitor alone (HeLa cells [7]): greater than additive increase; AP site damage, inhibitor alone (HeLa cells [8]): increased AP site damage relative to the control cells; AP site damage, inhibitor plus MMS (HeLa cells [8]): potentiated the genotoxic potential of MMS |
| O=C1c2c(O)ccc(O)c2C(=O)c2c(NCCNCCO)ccc(NCCNCCO)c21 [mitoxantrone] | 2000 | Yes | < 500 | 0.35 | positive | similarly potent against each endonuclease | 2 |  |  |  |
| CO/N=C(\C(=O)N[C@@H]1C(=O)N2C(C(=O)O)=C(CSc3nc(=O)c(=O)[nH]n3C)CS[C@H]12)c1csc(N)n1 [ceftriaxone sodium] | 2200 | No | > 50000 | > 57 |  |  | 11 |  |  |  |
| COc1cccc2c1C(=O)c1c(O)c3c(c(O)c1C2=O)C[C@@](O)(C(=O)CO)C[C@@H]3O[C@H]1C[C@H](N)[C@H](O)[C@H](C)O1 [doxorubicin] |  |  |  |  | strong ThO displacement profiles |  |  |  |  |  |
| CC(=O)[C@]1(O)Cc2c(O)c3c(c(O)c2[C@@H](O[C@H]2C[C@H](N)[C@H](O)[C@H](C)O2)C1)C(=O)c1ccccc1C3=O [idarubicin] |  |  |  |  | strong ThO displacement profiles |  |  |  |  |  |
| Cn1cc(NC(=O)c2cc(NC(=O)c3cc(NC=O)cn3C)cn2C)cc1C(=O)NCCC(=N)N [distamycin] |  |  |  |  | strong displacement activity |  |  |  |  |  |
| Cc1nc(N=Nc2cc(S(=O)(=O)O)c3cc([N+](=O)[O-])cc(S(=O)(=O)O)c3c2)c(COP(=O)(O)O)c(C=O)c1O [PPNDS tetrasodium] | 2800 | No | > 50000 | 10 |  |  | 16 |  |  |  |
| Nc1c(S(=O)(=O)O)cc(Nc2ccc(Nc3nc(Cl)nc(Nc4cccc(S(=O)(=O)O)c4)n3)c(S(=O)(=O)O)c2)c2c1C(=O)c1ccccc1C2=O [Reactive Blue 2] | 250 | Yes | < 500 | 8.9 |  | completely inactive or weakly active | 10 | ≥ 80% | ≥ 80% | percent cell killing, MMS plus inhibitor relative to alkylator or inhibitor alone (HeLa cells [7]): greater than additive increase; AP site damage, inhibitor alone (HeLa cells [8]): increased AP site damage relative to the control cells; AP site damage, inhibitor plus MMS (HeLa cells [8]): potentiated the genotoxic potential of MMS |
